Measurements as given in US9480729B2, “Enzymes for inhibiting growth of biofilms and degrading same” (C5-6 Technologies, Inc., priority 2012, dated 2016).

B1: P043 CelH: Clostridium thermocellum CelH enzyme (gene Cthe_1472) represented by SEQ ID NO:12 (protein, listed as Clostridium thermocellum)
chain: IKSFQELQGRKLDIVHQFINWSTDFSWVRPYADAVYNNGSILMITWEPWEYNTVDIKNGKADAYITRMAQDMKAYGKEIWLRPLHEANGDWYPWAIGYSSRVNTNETYIAAFRHIVDIFRANGATNVKWVFNVNCDNVGNGTSYLGHYPGDNYVDYTSIDGYNWGTTQSWGSQWQSFDQVFSRAYQALASINKPIIIAEFASAEIGGNKARWITEAYNSIRTSYNKVIAAVWFHENKETDWRINSSPEALAAYREAIGAGSSNPTPTPTWTSTPPSSSPKAVDPFEMVRKMGMGTNLGNTLEAPYEGSWSKSAMEYYFDDFKAAGYKNVRIPVRWDNHTMRTYPYTIDKAFLDRVEQVVDWSLSRGFVTIINSHHDDWIKEDYNGNIERFEKIWEQIAERFKNKSENLLFEIMNEPFGNITDEQIDDMNSRILKIIRKTNPTRIVIIGGGYWNSYNTLVNIKIPDDPYLIGTFHYYDPYEFTHKWRGTWGTQEDMDTVVRVFDFVKSWSDRNNIPVYFGEFAVMAYADRTSRVKWYDFISDAALERGFACSVWDNGVFGSLDNDMAIYNRDTRTFDTEILNALFNPGTYPSYSPKPSPTPRPTKPPVTPAVGEKMLDDFEGVLNWGSYSGEGAKVSTKIVSGKTGNGMEVSYTGTTDGYWGTVYSLPDGDWSKWLKISFDIKSVDGSANEIRFMIAEKSINGVGDGEHWVYSITPDSSWKTIEIPFSSFRRRLDYQPPGQDMSGTLDLDNIDSIHFMYANNKSGKFVVDNIKLIGATSDPTPSIKHGDLNFDNAVNSTDLLMLKRYILKSLELGTSEQEEKFKKAADLNRDNKVDSTDLTILKRYLLKAISEIPI

Legend:
[1] = cited from earlier work
[2] = tested on: Pseudomonas aeruginosa biofilm; assay: Sugar release / solubilization of dehydrated P. aeruginosa biofilm by carbohydrate-active enzymes; conditions: individual enzymes, dehydrated biofilm in PBS, 37° C., 19 hr / overnight

Row | Molecule | maximal attainable concentration in the CF lung [1] | digestion (solubilization, hydrolysis) of the Pseudomonas aeruginosa biofilm, sugar release [2]
1 | NC[C@H]1O[C@H](O[C@H]2[C@H](O)[C@@H](O[C@H]3O[C@H](CO)[C@@H](O)[C@H](N)[C@H]3O)[C@H](N)C[C@@H]2N)[C@H](N)C[C@@H]1O [tobramycin] | ~1000 µg/mL | –
2 | egg yolk lysozyme: egg yolk lysozyme (Sigma L4919) | – | None of these three enzymes showed significant hydrolysis
3 | B1 | – | positive results
